Molecules are shown by their SMILES.

Test [1] concerns the target T1, Bovine lysyl oxidase (LOX) (Bos taurus, UniProt P33072).
T1 construct: from tissue; host or cells: adult bovine tendon
T1 sequence (P33072 170-418): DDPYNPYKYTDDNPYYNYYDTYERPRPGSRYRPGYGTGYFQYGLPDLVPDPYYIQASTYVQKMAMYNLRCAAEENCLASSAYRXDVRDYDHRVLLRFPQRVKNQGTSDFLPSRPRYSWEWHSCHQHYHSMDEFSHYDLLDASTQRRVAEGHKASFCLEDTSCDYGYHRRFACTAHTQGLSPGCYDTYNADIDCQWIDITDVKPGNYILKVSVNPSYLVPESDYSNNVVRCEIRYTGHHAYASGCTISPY
Kind of test: LOX inhibition assay, fluorometric (cadaverine / HRP / Amplex Red). The test is classed as biochemical. Conditions: LOX extracted from bovine tendon, 30 min preincubation at 37° C., 5 mM cadaverine; for IC50: read-out: Activity Range LOX. On the procedure:
The ability of compounds to inhibit prototypic LOX was determined using a fluorometric assay. This assay measures the activity of lysyl oxidases by coupling the reaction with horseradish peroxidase-catalyzed […]. The activity assay protocol uses cadaverine as substrate that releases hydrogen peroxide upon transformation by prototypic LOX enzyme present in the sample. Hydrogen peroxide was in turn detected using a red fluorescence substrate for HRP-coupled reactions (Amplex Red Enzyme Assays, Thermo Scientific Fisher). This lead to an increase in fluorescence that can be easily detected at Ex/Em=540/590 nm in a fluorescence microplate
Bovine lysyl oxidase (LOX) was extracted by adapting the methodology from [Kagan et al. 1979 and Borel et al. 2001.] from bovine tendon: Frozen adult bovine tendon was placed in room temperature water to defrost, and then membranes were removed and the remaining tissue cut into 1 cm pieces. The material was first passed through a course mesh meat grinder, and this mince was passed through a fine mesh grinder. The mince was homogenized in 10 v/w of buffer (16 mM sodium phosphate buffer pH 7.8, 400 mM NaCl) using a Waring blender. The homogenate was centrifuged at 15,000×g for 15 min at 4° C. After centrifugation, the supernatant was discarded and the pellets resuspended in 10 volumes of the same buffer. The mixture was blended again and centrifuged with the same settings. This time the pellets were blended in 3 volumes of extraction buffer (16 mM sodium phosphate buffer pH 7.8) and left to incubate at 4° C. for 2 h. After this time, the slurry was centrifuged with the same settings as described above. The supernatant was used in an ultrafiltration step to remove large proteins by size exclusion through a 30 kDalton filter (EMD Millipore). The filtrate was mixed with DEAE Sephadex (GE Healthcare), or passed over a MonoQ FPLC column. After two washes, one in 16 mM sodium phosphate buffer pH 7.8, 380 mM NaCl, and another in 16 mM sodium phosphate buffer pH 7.8, the proteins were eluted with 16 mM sodium phosphate pH 7.8, 10 μM CuSO4, and 4 M urea. Fractions containing Lox activity were collected and stored frozen at −70° C.
Final concentration in the LOX assay is shown in Table 6 below and performed in a total volume of […].
7 μl of freshly prepared reaction buffer were delivered to reaction wells. Compounds were resuspended in 100% DMSO at 10 mM and delivered into buffer using acoustic technology (Echo550; nanoliter range). A 2.85× solution of LOX protein in reaction buffer was prepared (“LOX solution”) and 7 μl of LOX solution was added into the reaction wells. Buffer only was added to column 1 for no protein control. Reactions were incubated for 30 minutes at 37° C. A 3.33× mixture of cadaverine, Amplex Red, and HRP (“Substrate/Detection Mix) was prepared and subsequently 6 μL of the mixture was added to each reaction well. Progress of reactions was monitored for 120 minutes at 37° C. using Clariostar plate reader (ex530-12, ems 600-40). For all activity assays, pan-LOX inhibitor CCT365623 (Tang et al, 2017) and LOXL2/LOXL3 inhibitor PAT-1251 (PharmaKea) were included as standards.
The slope of the linear portion of the progress curve was calculated using Clariostar software. Typical analysis interval was between 20-50 min, but varied between experiments. The background subtracted signals (No protein wells were considered as background) were converted to % activity relative to DMSO controls. Data was analyzed using GraphPad Prism 4 with “sigmoidal dose-response (variable slope)”; 4 parameters with Hill Slope. Constraints: Bottom=Constant equal to 0. Top=Must be less than 120.

In test [2] the target is T2, Recombinant human LOXL2 (lysyl oxidase like 2) (Homo sapiens, UniProt Q9Y4K0).
T2 construct: purchased R&D systems
T2 sequence (Q9Y4K0 26-774): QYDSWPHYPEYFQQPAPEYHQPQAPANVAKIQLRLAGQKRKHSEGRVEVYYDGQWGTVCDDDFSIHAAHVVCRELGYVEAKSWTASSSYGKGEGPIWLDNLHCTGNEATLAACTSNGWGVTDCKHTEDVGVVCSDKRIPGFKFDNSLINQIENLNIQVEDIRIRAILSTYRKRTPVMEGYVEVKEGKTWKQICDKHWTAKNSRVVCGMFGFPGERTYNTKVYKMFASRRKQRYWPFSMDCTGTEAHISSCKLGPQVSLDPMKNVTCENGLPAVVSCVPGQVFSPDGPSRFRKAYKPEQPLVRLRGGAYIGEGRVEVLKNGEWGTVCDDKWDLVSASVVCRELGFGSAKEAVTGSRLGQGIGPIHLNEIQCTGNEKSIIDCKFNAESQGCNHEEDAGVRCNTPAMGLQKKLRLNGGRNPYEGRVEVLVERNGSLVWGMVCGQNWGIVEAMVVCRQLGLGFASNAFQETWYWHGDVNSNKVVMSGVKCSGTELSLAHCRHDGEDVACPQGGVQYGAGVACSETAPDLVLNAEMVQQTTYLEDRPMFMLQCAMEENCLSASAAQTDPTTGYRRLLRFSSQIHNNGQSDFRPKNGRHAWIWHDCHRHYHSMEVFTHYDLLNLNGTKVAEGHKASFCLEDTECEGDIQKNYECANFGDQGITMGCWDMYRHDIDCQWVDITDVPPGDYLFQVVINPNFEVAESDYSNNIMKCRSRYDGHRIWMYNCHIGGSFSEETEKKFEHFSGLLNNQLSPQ
Kind of test: LOXL2 inhibition assay, fluorometric (cadaverine / HRP / Amplex Red). To be noted: recombinant human LOXL2 130 nM; 30 min preincubation at 37° C.; 2.5 mM cadaverine; read-out: Activity Range LOXL2. The test is classed as biochemical. On the procedure:
The ability of compounds to inhibit one or more of the lysyl oxidases LOXL2 and/or LOXL3 was determined using a fluorometric assay. This assay measures the activity of lysyl oxidases by coupling the reaction with horseradish peroxidase-catalyzed […]. The activity assay protocol uses cadaverine as substrate that releases hydrogen peroxide upon transformation by the specific LOX family enzyme present in the sample. Hydrogen peroxide is in turn detected using a red fluorescence substrate for HRP-coupled reactions (Amplex Red Enzyme Assays, Thermo Scientific Fisher). This leads to increase in fluorescence that can be easily detected at Ex/Em=540/590 nm in a fluorescence microplate reader.
Recombinant human LOXL2 (lysyl oxidase like 2) and recombinant human LOXL3 (lysyl oxidase like 3) were purchased from R&D systems and assays were performed in 1.2 M urea, 50 mM sodium borate buffer pH 8.0, and 10 mM CaCl.
5 μl of freshly prepared reaction buffer were delivered to reaction wells. Compounds were resuspended in 100% DMSO at 10 mM and delivered into buffer using acoustic technology (Echo550; nanoliter range). A 3× solution of LOXL2 or LOXL3 in reaction buffer was prepared (“enzyme solution”) and 5 μL of enzyme solution was added into the reaction wells. Buffer only was added to column 1 for no protein control. Reactions were incubated for 30 minutes at 37° C. A 3× mixture of cadaverine, Amplex Red, and HRP (“Substrate/Detection Mix) was prepared and subsequently 5 μL of the mixture added to each reaction well. Progress of reactions was monitored for 60 minutes at 37° C. using Clariostar plate reader (ex 530-12, ems 600-40). For all activity assays, pan-LOX inhibitor CCT365623 (Tang et al, 2017) and LOXL2/LOXL3 inhibitor PAT-1251 (PharmaKea) were included as standards.
For the data analysis, the slope of the linear portion of the progress curve was calculated using Clariostar software. Typical analysis interval was between 8-30 min, but varied between experiments. The background-subtracted signals (No protein wells are considered as background) were converted to % activity relative to DMSO controls. Data was analyzed using GraphPad Prism 4 with “sigmoidal dose-response (variable slope)”; 4 parameters with Hill Slope. Constraints: Bottom=Constant equal to 0. Top=Must be less than 120.

In the case of `CS(=O)(=O)N1C[C@@H](c2ccccc2)C[C@H]1CS(=O)(=O)c1cccc(CN)c1` (racemic) [Example 27, cis-(3-(((1-(Methylsulfonyl)-4-phenylpyrrolidin-2-yl)methyl)sulfonyl)phenyl)methanamine 2,2,2-trifluoroacetate], the IC50 was 1000 to 30000 nM in test [1] and at most 500 nM in test [2].
The corresponding values for `NCc1ccnc(S(=O)(=O)C[C@@H]2C[C@H](c3ccc(F)cc3)CN2S(=O)(=O)N2CCS(=O)(=O)CC2)c1` (racemic) [Example 206, cis-4-((2-(((4-(Aminomethyl)pyridin-2-yl)sulfonyl)methyl)-4-(4-fluorophenyl)pyrrolidin-1-yl)sulfonyl)thiomorpholine 1,1-dioxide 2,2,2-trifluoroacetate] are 1000 to 30000 nM and at most 500 nM.
The corresponding values for `NCc1ccnc(OC[C@@H]2C[C@H](c3ccc(F)cc3)CN2S(=O)(=O)N2CCOCC2)c1` (racemic) [Example 212, cis-(2-((4-(4-Fluorophenyl)-1-(morpholinosulfonyl)pyrrolidin-2-yl)methoxy)pyridin-4-yl)methanamine 2,2,2-trifluoroacetate] are 1000 to 30000 nM and at most 500 nM.
On to `NCc1ccnc(S(=O)(=O)C[C@@H]2C[C@H](c3ccccc3F)CN2S(=O)(=O)N2CCOCC2)c1` (racemic) [Example 203, cis-(2-(((4-(2-fluorophenyl)-1-(morpholinosulfonyl)pyrrolidin-2-yl)methyl)sulfonyl)pyridin-4-yl)methanamine 2,2,2-trifluoroacetate], for which the IC50 is 1000 to 30000 nM in test [1] and at most 500 nM in test [2].
On to `NCc1ccnc(S(=O)(=O)C[C@@H]2C[C@H](c3ccc(F)cc3)CN2S(=O)(=O)N2CCOCC2)c1` (racemic) [Example 204, cis-(2-(((4-(4-fluorophenyl)-1-(morpholinosulfony1)pyrrolidin-2-yl)methyl)sulfonyl)pyridin-4-yl)methanamine 2,2,2-trifluoroacetate], for which the IC50 was 1000 to 30000 nM in test [1] and at most 500 nM in test [2].
Take `CS(=O)(=O)N1C[C@@H](c2ccccc2)C[C@H]1CS(=O)(=O)c1ccc(CN)cc1` (racemic) [Example 26, cis-(4-(((1-(Methylsulfonyl)-4-phenylpyrrolidin-2-yl)methyl)sulfonyl)phenyl)methanamine 2,2,2-trifluoroacetate]: the IC50 was 1000 to 30000 nM in test [1] and at most 500 nM in test [2].
With `NCc1ccnc(OC[C@@H]2C[C@H](c3ccc(F)cc3)CN2S(=O)(=O)N2CCS(=O)(=O)CC2)c1.O=C(O)C(F)(F)F` (racemic) [Example 214, cis-((2-(((4-(Aminomethyl)pyridin-2-yl)oxy)methyl)-4-(4-fluorophenyl)pyrrolidin-1-yl)sulfonyl)thiomorpholine 1,1-dioxide 2,2,2-trifluoroacetate], the “Activity Range LOX” value in test [1] is given as “Inactive”. Also, the IC50 in test [2] was at most 500 nM.
For `NCc1cccc(OC[C@@H]2C[C@H](c3ccc(F)cc3)CN2S(=O)(=O)N2CCOCC2)c1.O=C(O)C(F)(F)F` (racemic) [Example 216, cis-(3-((4-(4-Fluorophenyl)-1-(morpholinosulfonyl)pyrrolidin-2-yl)methoxy)phenyl)methanamine 2,2,2-trifluoroacetate], the “Activity Range LOX” value in test [1] was “Inactive”. Moreover, the IC50 in test [2] fell in the range of 500 to 1000 nM.
With `NCc1cccc(OC[C@@H]2C[C@H](c3ccc(F)cc3)CN2S(=O)(=O)N2CCS(=O)(=O)CC2)c1` (racemic) [Example 218, cis-4-((2-((3-(Aminomethyl)phenoxy)methyl)-4-(4-fluorophenyl)pyrrolidin-1-yl)sulfonyl)thiomorpholine 1,1-dioxide], the IC50 in test [1] was 1000 to 30000 nM; in test [2], at most 500 nM.
Regarding `NCc1ccc(S(=O)(=O)C[C@@H]2C[C@H](c3ccccc3F)CN2S(=O)(=O)N2CCOCC2)s1` (racemic) [Example 207, cis-(5-(((4-(2-Fluorophenyl)-1-(morpholinosulfonyl)pyrrolidin-2-yl)methyl)sulfonyl)thiophen-2-yl)methanamine 2,2,2-trifluoroacetate], the IC50 in test [1] and in test [2] was at most 500 nM throughout.
As to `NCc1ccc(S(=O)(=O)C[C@@H]2C[C@H](c3ccc(F)cc3)CN2S(=O)(=O)N2CCS(=O)(=O)CC2)s1` (racemic) [Example 210, cis-4-((2-(((5-(Aminomethyl)thiophen-2-yl)sulfonyl)methyl)-4-(4-fluorophenyl)pyrrolidin-1-yl)sulfonyl)thiomorpholine 1,1-dioxide 2,2,2-trifluoroacetate], the IC50 in test [1] is 1000 to 30000 nM; in test [2], at most 500 nM.

These data come from US12016864B2, “LOX enzyme inhibiting methods and compositions” (ANOVIA BIOSCIENCES, INC., priority 2021, dated 2024).
